From patent US20150126611A1, “3,3-DIPHENYL-N-(1-PHENYLETHYL) PROPAN-1-AMINE: AS A NEW SELECTIVE LIGAND OF THE SIGMA-1 RECEPTORS, WITH ANTI-APOPTOTIC (CYTOPROTECTIVE) PROPERTIES AND PROTOTYPICAL ANTICANCER ACTIVITY” (priority 2012, published 2015)

Columns and labels:
[1] = molecular target: sigma-1 receptors (Homo sapiens, UniProt Q99720); experiment: binding to sigma-1 receptors; conditions: read-out: median concentrations of binding (IC50) for sigma-1 receptors
[2] = test system: colon, prostate, ovarian, pancreas and hepatic cancer cells; experiment: in vitro anticancer activity; format: cell-based
[3] = test system: cancer cells; experiment: anticancer activity in vitro and in vivo by inoculation of cancer cells in SCID mice; design: species or system immunosuppressed SCID mice
Excerpt: The anticancer activity of DPPA was studied in vitro and in vivo by inoculation of cancer cells in immunosuppressed SCID mice. […] Moreover, even when the neuropathic pain, induced by the anticancer drugs was installed, DPPA antagonized it, by inhibition of the hypersensitive neurons injured by the neurotoxicity of the above anticancer drugs.

[4] = test system: Aβ25-35 induced amnesia; experiment: amyloid Aβ25-35 induced amnesia (Y-maze and step-through); format: in vivo, mice
Excerpt: Indeed, concerning the cytodegenerative diseases and more specifically the neurodegenerative diseases (Alzheimer, Huntington, Parkinson or Multiple Sclerosis), DPPA, in contrast to the symptomatic treatments used currently against the above diseases, antagonizes their pathophysiological causes ie., the endocellular biochemical stress and, concerning the neurons, also their fatal entry in the cell cycle. Of particular interest was the action of DPPA when it was coadministered with the inhibitors of the acetylcholinesterases (IAChEases) which are used as symptomatic drugs (principally Rivastigmine, Donepezil and Galantamine) against the Alzheimer's Disease (AD). […] Indeed, DPPA, via its antagonistic action on the M2 muscatinic autoreceptors of the brain cholinergic neurons (M2[−]), abolished the pro-neurodegenerative agonistic activity of the IAChEases on the hyperactivated (by AD or by the soluble Aβ25-35) cerebral M2 muscarinic autoreceptors, originating a new pharmacological approach (M2[−]) and (σ1[+]) against the neurodegenerative effects of Aβ25-35 in AD and also against the deleterious effect of the agonistic action of IAChEases on the M2 muscarinic brain autoreceptors, validating these drugs (IAChEases) as putative therapeutic agents against AD.

[5] = test system: immobility in forced swimming; conditions: po, mice, Porsolt; cited from earlier work
[6] = test system: site-2 of the sodium channels; experiment: affinity for site-2 of the sodium channels; format: binding
[7] = antagonism of pentylenetetrazole (PTZ) lethality in mice; format: in vivo; conditions: PTZ 130 mg/kg ip, DPPA 3 mg/kg po
Experimental: (§1) More important- at lower doses: 0,01 to 1,00 mg/kg, intraperitoneal (ip) in mice—the cytoprotective activity of DPPA obtained by antagonism of the endoplasmic reticulum stress (ER stress) and amelioration of the cytoprotective autophagic processus of the cells and, more specifically, of neurons (in the neurodegenerative diseases and eldery). […] These cytoprotective activities of DPPA were completed, specifically in neurons, by inhibiting their entry in the cell cycle, as this entry is always fatal for neurons. In contrast, concerning the cancer cells, the above inhibition triggered the apoptotic processus and their death.

[8] = test system: mitochondrial toxicity of pentylenetetrazole (PTZ); experiment: as above; format: in vivo; conditions: PTZ 130 mg/kg ip
Experimental: as §1

[9] = test system: Paclitaxel-induced neuropathic pain; experiment: neuropathic pain by sensibilisation with Paclitaxel, formalin injection in hind paw; format: in vivo; conditions: po, mice
Experimental: Finally, in the experimental protocol of neuropathic pain by sensibilisation with Paclitaxel and evaluation of the neuropathic pain by injection of formalin in the hind paw of mice, the analgesic effect of DPPA was significative from 1.0 mg/kg (po) and was spectacular at higher doses (25 to 75 mg/kg, po). Indeed, the Paclitaxel+DPPA treated mice were less sensible to formalin than the control mice not treated with Paclitaxel.

[10] = molecular target: sigma-2 receptors (Homo sapiens, UniProt Q5BJF2); experiment: binding to sigma-2 receptors; conditions: read-out: median concentrations of binding (IC50) for sigma-2 receptors
[11] = molecular target: T1, M2 muscarinic receptors (Mus musculus, UniProt Q9ERZ4); experiment: peripheral M2 muscarinic antagonism in mice; format: in vivo; conditions: 0.1 to 10 mg/kg, ip
T1 construct: from tissue; host or cells: living mice, peripheral tissues
T1 sequence (Q9ERZ4 1-466): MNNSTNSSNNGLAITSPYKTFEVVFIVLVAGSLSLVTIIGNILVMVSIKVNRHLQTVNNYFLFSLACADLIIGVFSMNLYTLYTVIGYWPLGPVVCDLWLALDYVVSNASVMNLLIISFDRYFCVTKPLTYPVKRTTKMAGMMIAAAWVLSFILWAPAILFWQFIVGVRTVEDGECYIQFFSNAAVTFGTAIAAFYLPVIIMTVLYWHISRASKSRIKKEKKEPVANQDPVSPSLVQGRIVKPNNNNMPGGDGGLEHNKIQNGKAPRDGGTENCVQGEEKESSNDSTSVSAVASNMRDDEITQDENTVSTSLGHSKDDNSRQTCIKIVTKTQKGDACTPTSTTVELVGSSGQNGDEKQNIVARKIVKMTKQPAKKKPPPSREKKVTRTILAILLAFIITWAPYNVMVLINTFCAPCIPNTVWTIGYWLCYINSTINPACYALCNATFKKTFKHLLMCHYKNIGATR

[12] = test system: dizocilpine induced amnesia; experiment: dizocilpine induced amnesia; format: in vivo; conditions: mice
[13] = molecular target: T2, M3 muscarinic receptors (Mus musculus, UniProt Q9ERZ3); experiment: peripheral M3 muscarinic antagonism in mice; format: in vivo; conditions: 0.1 to 10 mg/kg, ip
T2 construct: from tissue; host or cells: living mice, peripheral tissues

[14] = test system: scopolamine induced amnesia; experiment: scopolamine induced amnesia; format: in vivo; conditions: mice

Chain of sigma-1 receptors (Q99720 whole entry): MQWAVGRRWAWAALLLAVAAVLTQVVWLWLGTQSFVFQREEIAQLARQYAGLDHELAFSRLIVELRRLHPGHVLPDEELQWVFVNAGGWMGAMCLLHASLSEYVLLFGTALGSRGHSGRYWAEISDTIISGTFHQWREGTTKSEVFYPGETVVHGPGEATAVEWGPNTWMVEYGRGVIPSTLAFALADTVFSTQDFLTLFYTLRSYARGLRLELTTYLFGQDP
Chain of sigma-2 receptors (Q5BJF2 whole entry): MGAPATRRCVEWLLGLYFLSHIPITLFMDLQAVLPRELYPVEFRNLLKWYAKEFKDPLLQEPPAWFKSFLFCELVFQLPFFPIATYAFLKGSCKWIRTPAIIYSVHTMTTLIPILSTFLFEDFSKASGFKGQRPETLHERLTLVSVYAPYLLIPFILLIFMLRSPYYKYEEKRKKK
T2 sequence (Q9ERZ3 whole entry): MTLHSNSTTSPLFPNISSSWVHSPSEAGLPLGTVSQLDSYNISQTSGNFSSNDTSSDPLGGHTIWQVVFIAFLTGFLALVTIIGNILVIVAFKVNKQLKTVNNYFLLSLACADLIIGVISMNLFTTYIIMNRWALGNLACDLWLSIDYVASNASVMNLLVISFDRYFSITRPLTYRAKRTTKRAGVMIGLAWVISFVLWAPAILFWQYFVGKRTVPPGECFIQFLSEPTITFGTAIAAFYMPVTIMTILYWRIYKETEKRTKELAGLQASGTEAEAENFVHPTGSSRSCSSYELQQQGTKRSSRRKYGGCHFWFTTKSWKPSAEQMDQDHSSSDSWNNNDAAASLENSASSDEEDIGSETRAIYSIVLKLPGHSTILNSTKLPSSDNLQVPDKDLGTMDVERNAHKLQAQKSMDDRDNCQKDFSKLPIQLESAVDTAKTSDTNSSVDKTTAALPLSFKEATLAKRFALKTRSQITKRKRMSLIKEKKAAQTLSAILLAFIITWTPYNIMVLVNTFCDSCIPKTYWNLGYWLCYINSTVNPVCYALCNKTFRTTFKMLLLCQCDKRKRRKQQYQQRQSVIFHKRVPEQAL

Structure (SMILES): CC(NCCC(c1ccccc1)c1ccccc1)c1ccccc1 (centres unmarked) [DPPA, 3,3-diphenyl-N-(1-phenylethyl) propan-1-amine]
- IC50 [1]: 14 to 18 nM
- anticancer activity on cancer cells in vitro [2]: demonstrated the anticancer activity
- anticancer activity versus clinically used anticancer drugs [3]: lower than those of the clinically used anticancer drugs
- antiamnesic action on coadministration with IAChEases (Rivastigmine or Donepezil) ([4]; intracerebral soluble Aβ25-35, mice, Y-maze and step-through): higher than the sum of the antiamnesic effects of DPPA and IAChEases
- antagonism of amyloids Aβ25-35 induced amnesia ([4]; mice): antagonism
- dose at which anti-immobility properties are significative [5]: more than 10 mg/kg
- IC50 [6]: 290 nM
- increase of the latency of lethality of PTZ [7]: 5 fold
- increase of the latency of lethality of PTZ ([8]; DPPA 10 mg/kg po): 10 fold
- increase of the latency of lethality of PTZ ([8]; DPPA 30 mg/kg po): 20 fold
- analgesic effect at higher doses ([9]; 25 to 75 mg/kg): spectacular
- dose from which the analgesic effect was significative ([9]; Paclitaxel sensibilisation, formalin in hind paw): ≥ 1.0 mg/kg
- IC50 [10]: 730 to 850 nM
- effects on M2 muscarinic receptors in the periphery [11]: antagonistic effects
- antagonism of dizocilpine induced amnesia [12]: antagonism
- effects on M3 muscarinic receptors in the periphery [13]: antagonistic effects
- antagonism of scopolamine induced amnesia [14]: antagonism
